Values quoted from earlier work, collected in patent US20100216762A1, “Agonists and Antagonists of the S1P5 Receptor, and Methods of Use Thereof” (ABBOTT LABORATORIES, priority 2009, published 2010).

Experiments:
[1] = spared-nerve injury model of neuropathic pain

| SMILES | nociception in the formalin model | Aβ-induced migration of monocytes to sites of injury (monocytes) | nociceptive behavior in the spared-nerve injury model [1] |
| --- | --- | --- | --- |
| CCCCCCCCc1ccc(CCC(N)(CO)CO)cc1 [FTY720] | anti-nociceptive | inhibits that migration | reduced nociceptive behavior |
| FC(F)(F)c1cccc(-c2noc(-c3cc(-c4ccccc4)c(C(F)(F)F)s3)n2)c1 [SEW2871] | lack of activity | – | – |
